Consider 53 compounds from the RepoRT retention time repository (doi:10.1021/acs.analchem.2c02893).

A short description of the data set: RP, Thermo Scientific Acclaim RSLC 120 C18, 100 × 2.1 mm, 2.2 µm, 30 °C, 0.2 mL/min, estimated dead time 1.1 min; A: 90% water + 10% methanol + 0.01% formic acid + 5 mM ammonium formate, pH 3.61; B: methanol + 0.01% formic acid + 5 mM ammonium formate, pH 3.61; gradient (min/%B) 0/1 1/1 2/39 13/99.9 15/99.9 15.1/1 20.1/1. The note with it: stereoisomer not certain.

Turning to `c1cc2c(c(NC3=NCCN3)c1)CCC2` [Indanazoline], the LC retention time is 4.76 min.
Under `CC1Cc2ccccc2N1NC(=O)c1ccc(Cl)c(S(N)(=O)=O)c1` (stereo not drawn) [Indapamide] stands 6.61 min; under `CC(C)(C)NC(=O)C1CN(Cc2cccnc2)CCN1CC(O)CC(Cc1ccccc1)C(=O)NC1c2ccccc2CC1O` (stereo not drawn) [Indinavir], 9.79 min; under `O=C(O)Cc1c[nH]c2ccccc12` [Indole-3-acetic acid], 5.78 min.
For `COc1ccc2c(c1)c(CC(=O)O)c(C)n2C(=O)c1ccc(Cl)cc1` [Indomethacin], the LC retention time was 10.3 min.
Under `O=C(NC1CCN(CCc2c[nH]c3ccccc23)CC1)c1ccccc1` [Indoramin] stands 5.37 min; under `COC(=O)N(C(=O)N1COC2(C(=O)OC)Cc3cc(Cl)ccc3C2=N1)c1ccc(OC(F)(F)F)cc1` (stereo not drawn) [Indoxacarb], 11.6 min.
Under `CN(CC(O)CO)C(=O)c1c(I)c(NC(=O)C(CO)CO)c(I)c(C(=O)N(C)CC(O)CO)c1I` (stereo not drawn) [Iobitridol] stands 2.74 min; under `CC(=O)N(CC(O)CN(C(C)=O)c1c(I)c(C(=O)NCC(O)CO)c(I)c(C(=O)NCC(O)CO)c1I)c1c(I)c(C(=O)NCC(O)CO)c(I)c(C(=O)NCC(O)CO)c1I` (stereo not drawn) [Iodixanol], 3.56 min.
Under `COP(=S)(OC)Oc1cc(Cl)c(I)cc1Cl` [Iodofenphos (Jodfenphos)] stands 12.7 min; under `CC(=O)N(CC(O)CO)c1c(I)c(C(=O)NCC(O)CO)c(I)c(C(=O)NCC(O)CO)c1I` (stereo not drawn) [Iohexol], 2.98 min.
For the compound `CN(C(=O)CO)c1c(I)c(C(=O)NCC(O)CO)c(I)c(C(=O)NCC(O)CO)c1I` (stereo not drawn) [Iomeprol], the LC retention time was 2.91 min.
With `CN(C)C=Nc1c(I)cc(I)c(CCC(=O)O)c1I` [Iopodic acid], the LC retention time was 10.2 min.
Under `COCC(=O)Nc1c(I)c(C(=O)NCC(O)CO)c(I)c(C(=O)N(C)CC(O)CO)c1I` (stereo not drawn) [Iopromid] stands 3.38 min; under `CC(=O)Nc1c(I)c(C(=O)O)c(I)c(C(=O)NCCO)c1I` [Ioxitalamin acid], 2.09 min; under `CC(C)[N+]1(C)C2CCC1CC(OC(=O)C(CO)c1ccccc1)C2` (stereo not drawn) [Ipratropium], 4.17 min.
Turning to `CN(C)CCCn1c2c(c3ccccc31)CCCCCC2` [Iprindol], the LC retention time was 9.26 min.
Under `CC(C)OP(=O)(OC(C)C)SCc1ccccc1` [Iprobenfos] stands 10.6 min.
Under `CC(C)NC(=O)N1CC(=O)N(c2cc(Cl)cc(Cl)c2)C1=O` [Iprodione] stands 10.5 min.
With `Cc1ccc(C(C)NC(=O)C(NC(=O)OC(C)C)C(C)C)cc1` (stereo not drawn) [Iprovalicarb], the LC retention time was 9.82 min.
Consider `CCCCC1=NC2(CCCC2)C(=O)N1Cc1ccc(-c2ccccc2-c2nn[nH]n2)cc1` [Irbesartan], for which the LC retention time was 9.44 min.
Under `CSc1nc(N)nc(NC(C)(C)C)n1` [Irgarol-descyclopropyl] stands 8.43 min; under `CSc1nc(NC2CC2)nc(NC(C)(C)C)n1` [Irgarol], 10.5 min.
Consider `CCOP(=S)(OCC)Oc1nc(Cl)n(C(C)C)n1` [Isazophos], for which the LC retention time was 9.87 min.
Under `CC(CC(C#N)(c1ccccc1)C(C)C)N(C)C` (stereo not drawn) [Isoaminile] stands 5.96 min; under `CC(C)CNC(=O)N1CCNC1=O` [Isocarbamid (Azolamide)], 5.74 min; under `COP(N)(=S)Oc1ccccc1C(=O)OC(C)C` (stereo not drawn) [Isocarbophos], 8.32 min.
Under `Clc1ccc(C(Cn2ccnc2)OCc2c(Cl)cccc2Cl)c(Cl)c1` (stereo not drawn) [Isoconazole] stands 12.3 min; under `COP(=S)(NC(C)C)Oc1ccccc1C(=O)OC(C)C` (stereo not drawn) [Isofenphos-methyl], 11.7 min; under `CCOP(=S)(NC(C)C)Oc1ccccc1C(=O)OC(C)C` (stereo not drawn) [Isofenphos], 11.2 min.
In the case of `NNC(=O)c1ccncc1` [Isoniazide], the LC retention time is 2.18 min.
Under `CC1(C)CC(N)CC(C)(CN)C1` (stereo not drawn) [Isophorone diamine] stands 1.67 min; under `CNC(=O)Oc1ccccc1C(C)C` [Isoprocarb], 8.12 min.
In the case of `CCCN(CCC)c1c([N+](=O)[O-])cc(C(C)C)cc1[N+](=O)[O-]` [Isopropalin], the LC retention time is 13.2 min.
Under `CC(C)c1ccc(NC(N)=O)cc1` [Isoproturon-didemethyl (1-(4-Isoprophenyl)urea)] stands 7.76 min; under `CC(C)c1ccc(NC(=O)N(C)C)cc1` [Isoproturon], 8.32 min.
Under `CC(CN1c2ccccc2Sc2cccnc21)N(C)C` (stereo not drawn) [Isothipendyl] stands 6.47 min; under `CCC(C)(CC)c1cc(NC(=O)c2c(OC)cccc2OC)on1` [Isoxaben], 9.42 min.
Under `CCOC(=O)C1=NOC(c2ccccc2)(c2ccccc2)C1` [Isoxadifen-ethyl] stands 10.7 min; under `CCOP(=S)(OCC)Oc1cc(-c2ccccc2)on1` [Isoxathion], 11.3 min.
With `CC(COc1ccccc1)NC(C)C(O)c1ccc(O)cc1` (stereo not drawn) [Isoxsuprine], the LC retention time is 5.28 min.
With `COC(=O)C1=C(C)NC(C)=C(C(=O)OC(C)C)C1c1cccc2nonc12` (stereo not drawn) [Isradipine], the LC retention time is 9.61 min.
Under `COc1cc2c(cc1OC)CC(=O)N(CCCN(C)CC1Cc3cc(OC)c(OC)cc31)CC2` (stereo not drawn) [Ivabradine] stands 5.02 min; under `CCC(C)C1OC2(CCC1C)CC1CC(CC=C(C)C(OC3CC(OC)C(OC4CC(OC)C(O)C(C)O4)C(C)O3)C(C)C=CC=C3COC4C(O)C(C)=CC(C(=O)O1)C34O)O2` (stereo not drawn) [Ivermectin B1a], 14.4 min.
Under `COC1CC(OC2C(C)OC(OC3C(C)=CCC4CC(CC5(CCC(C)C(C(C)C)O5)O4)OC(=O)C4C=C(C)C(O)C5OCC(=CC=CC3C)C45O)CC2OC)OC(C)C1O` (stereo not drawn) [Ivermectin B1b] stands 14.2 min; under `CCCCCn1c(C)c(C(=O)c2cccc3ccccc23)c2ccccc21` [JWH-007], 12.6 min.
Under `CCCn1c(C)c(C(=O)c2cccc3ccccc23)c2ccccc21` [JWH-015] stands 11.5 min; under `CCCCCn1cc(C(=O)c2cccc3ccccc23)c2ccc(OC)cc21` [JWH-018-6-Methoxy-Ind], 12.4 min.
For the compound `CCCCCn1cc(C(=O)C23CC4CC(CC(C4)C2)C3)c2ccccc21` [JWH-018-Adamantoyl. AB-001], the LC retention time is 13.7 min.
For the compound `CCCCCn1c(O)c(C(=O)c2cccc3ccccc23)c2ccccc21` [JWH-018-M-2-OH-Ind], the LC retention time is 14 min.
Under `CCCCCn1cc(C(=O)c2cccc3ccccc23)c2c(O)cccc21` [JWH-018-M-4-OH-Ind] stands 12.5 min; under `CCCCCn1cc(C(=O)c2cccc3ccccc23)c2cc(O)ccc21` [JWH-018-M-5-OH-Ind], 11.3 min.
Under `CCCCCn1cc(C(=O)c2cccc3ccccc23)c2ccc(O)cc21` [JWH-018-M-6-OH-Ind] stands 11.2 min.
